Data from article PMC7802073, “Small Molecule Inhibitors of the Bacterioferritin (BfrB)–Ferredoxin (Bfd) Complex Kill Biofilm-Embedded Pseudomonas aeruginosa Cells” (ACS Infectious Diseases, 2020).
Converted amounts (≈) assume the structure as drawn. “And” between values parts separate entries of the source, which are not always exact repeats. Identical values can stand only once.

Experiments:
[1] = test system: EYFP-expressing P. aeruginosa PAO1 pellicles; assay: Viable cells (CFU/mL) dispersed from pellicle biofilms; format: cell-based, Pseudomonas aeruginosa; details: 24 h; for viable cell count relative to the untreated pellicle (% cell survival): KM-5-25 40 μM (0.6× IC50) or KM-5-66 20 μM (0.5× IC50)
Method: Pellicle biofilms were grown as described above. Planktonic and loosely attached cells were washed (3 times) by immersing the coverslip-adhered pellicles (biofilm facing up) into a well of a 12-well plate containing 3 mL PBS, and incubating (5 min) with gentle rocking. To remove the pellicle from the coverslip, break the extracellular matrix and release cells from the biofilm, the coverslip-adhered pellicle was placed in a 50 mL conical tube containing a 2 mL suspension of zirconia beads (0.1 mm diameter, BioSpec Products), 10 mL PBS, 0.2 μg/mL alginate lyase and 0.2 μg/mL DNase. The resultant mixture was incubated at room temperature for 3 min, followed by vigorous vortexing for 4 min. After sedimentation of the zirconia beads, a 100 μL aliquot was used for serial dilution and plating on PIA plates for subsequent enumeration of viable cells (CFU/mL).

Aqueous solubility = format: physicochemical; details: aqueous media; read-out: soluble in aqueous media to
[2] = test system: P. aeruginosa PAO1 cells dispersed from pellicles; assay: Total intracellular iron in biofilm-embedded cells; format: cell-based, Pseudomonas aeruginosa; details: 2-day old pellicles, 24 h, KM-5-25 40 μM or KM-5-66 20 μM
Method: Pellicle biofilms were grown for 48 h as described above. The pellicles were transferred onto square (2 × 2 cm) glass coverslips by gently contacting the pellicle with the coverslip. […] After the zirconia beads had sedimented, a 100 μL aliquot was sampled from the cell suspension for plating and enumeration of viable cells and a 14 mL sample was used to harvest the cells by centrifugation (20 min, 400 rpm). The cell pellet was resuspended in 1 mL PBS, transferred to a 1.5 mL microcentrifuge tube, centrifuged for 10 min at 12 500 rpm at 4 °C and the cell pellet frozen at −80 °C. The frozen cells were subjected to three freeze–thaw cycles and then lysed by addition of 200 μL of lysis buffer (50 mM Tris-HCl buffer (pH 8.0) containing 10% (v/v) glycerol, 20 mg/mL lysozyme, 0.2 mg/mL DNase, 0.1 M NaCl, 1 mM MgSO4 and 1% (v/v) Triton-X100) and incubated at ambient temperature (30 min) and at 37 °C (30 min). […] Levels of total intracellular iron were determined as reported previously:[23],[87] […] The iron concentration was measured from the absorbance of the Fe^2+–Ferene S complex (ε593 = 34.5 mM^–1 cm^–1),[88] normalized by the viable cell counts and reported as Fe atoms per cell.

[3] = test system: P. aeruginosa clinical isolate PA_1076058; assay: Viable cells (CFU/mL) dispersed from pellicle biofilms of a clinical isolate; format: cell-based, Pseudomonas aeruginosa; details: PA_1076058 pellicles, 24 h, 1.2× IC50 (KM-5-25 80 μM, KM-5-66 50 μM)
Method: (§1) Pellicle biofilms were grown as described above.

[4] = test system: P. aeruginosa clinical isolate PA_1081725; assay: as above; format: cell-based, Pseudomonas aeruginosa; details: PA_1081725 pellicles, 24 h, 1.2× IC50 (KM-5-25 80 μM, KM-5-66 50 μM)
Method: as §1

P. aeruginosa PAO1 = assay: microbe, parasite or virus in culture; format: cell-based, Pseudomonas aeruginosa; details: for secreted pyoverdine relative to untreated control, fluorescence at 460 nm normalized to CFU/mL: KM-5-25 70 μM or KM-5-66 50 μM, 27 h, M63 media; for viability at 50 µM: Pseudomonas aeruginosa, PAO1, 27 h, read-out: viable cells relative to the untreated control
Method: Cultures of P. aeruginosa PAO1 treated with KM-5-25 (70 μM) or KM-5-66 (50 μM) were grown for 27 h prior to diluting the contents of each well in PBS (pH 7.4) and plating the cells on PIA plates for enumeration of CFU/mL. The 500-fold diluted solution was clarified by centrifugation and the pyoverdine in the cell-free supernatant was analyzed by acquiring fluorescence emission spectra (430–550 nm) with excitation at 400 nm (10 nm slit width) and emission at λmax = 460 nm (10 nm slit width) using a PerkinElmer LS50B spectrophotometer.
Figure S5. P. aeruginosa cells treated with 4-aminoisoindoline-1,3-dione derivatives overproduce pyoverdine. (A) P. aeruginosa cultures treated with KM-5-25 (70 µM) or KM-5-66 (50 µM) for 27 h have ~35% of the viable cells in the untreated control. (B) Fluorescence spectra from cell -free supernatant corresponding to untreated cultures ( solid line), treated with KM-5-25 (dashed line), or treated with KM-5-66 (dotted line). (C) Fluorescence intensity normalized to the number of viable […]
pyoverdine than cells in the untreated control. Averages and standard deviations for 3 biological replicates are shown. p < 0.01 denoted by ** and p < 0.001 by *** relative to untreated.
(1 picture or pasted object on this page, not shown here)

[5] = test system: iron stored in BfrB in pellicle-embedded P. aeruginosa PAO1 cells; assay: Iron stored in BfrB, native PAGE stained with Ferene S, densitometry; format: cell-based, Pseudomonas aeruginosa; details: 2-day old pellicles, 24 h, KM-5-25 40 μM or KM-5-66 20 μM
[6] = test system: Pellicles of P. aeruginosa PAO1 expressing EYFP; assay: Pellicle biofilm assay, CLSM imaging and COMSTAT viable biomass; format: cell-based, Pseudomonas aeruginosa; details: 24 h, approximately 1.2× IC50 (KM-5-25 80 μM, KM-5-66 50 μM)
Method: Pellicle biofilms of EYFP-expressing P. aeruginosa PAO1 or clinical isolates were grown in PI media supplemented with 20 μM Fe. Starter cultures were diluted to OD600 = 0.001 in 4 mL media, placed in 35 × 10 mm Petri dishes and incubated statically at 30 °C for 48 h. The pellicles were transferred onto circular (1.5 cm diameter) glass coverslips by gently allowing the surface of a coverslip to contact a pellicle. The pellicle-adhered coverslip was washed in PBS and then deposited on top of 1.5 mL AB challenge media contained in a well of a 12-well microplate, with the pellicle exposed to the media. […] The coverslip-adhered pellicles were exposed to challenge media at 30 °C for 24 h, changing the challenge media every 12 h by transferring the pellicle-adhered coverslip to a new plate containing prewarmed challenge media.
Excess fluorescent dye was washed with PBS, the coverslip was mounted on a glass slide using 5 μL SlowFade (Invitrogen Life Technologies) and the edges sealed with fingernail polish. CLSM image stacks (z-step size of 0.3 μm) were acquired with the aid of a Leica TCS SP8 microscope, as described above. Quantitative analysis was performed by determination of pellicle biomass using COMSTAT[55] and the Otsu method of automatic thresholding.[86]

[7] = 2-day old pellicles, 1.2× IC50 (KM-5-25 80 μM, KM-5-66 50 μM)
[8] = compound at 1.2× IC50 combined with colistin 25× MIC (20 μM)
[9] = compound at 1.2× IC50 combined with colistin 25× MIC
[10] = compound at 1.2× IC50 combined with colistin 50× MIC (40 μM)
[11] = compound at 1.2× IC50 combined with colistin 50× MIC
[12] = compound at 1.2× IC50 combined with tobramycin 25× MIC (27 μM)
[13] = compound at 1.2× IC50 combined with tobramycin 25× MIC
[14] = compound at 1.2× IC50 combined with tobramycin 50× MIC

| SMILES | % survival relative to cells in the pellicles prior to treatment ([1]; 2-day old pellicles, 0.3× IC50) | % survival relative to cells in the pretreated biofilm ([1]; 2-day old pellicles, 0.6× IC50) | % survival relative to cells in the pretreated biofilm [1, 7] | viable cell count relative to the untreated pellicle (% cell survival) ([1]; 2-day old pellicles) | % survival, combination treatment [1, 8] | reduction of viable cells relative to treatment with colistin alone [1, 9] | % survival, combination treatment [1, 10] | reduction of viable cells relative to treatment with colistin alone [1, 11] | % survival, combination treatment [1, 12] | reduction of viable cells relative to treatment with tobramycin alone [1, 13] | % survival, combination treatment [1, 14] | reduction of viable cells relative to treatment with tobramycin alone [1, 14] | solubility (Aqueous solubility) | total intracellular iron normalized to viable cell counts, relative to untreated biofilms [2] | reduction of viable cells [3] | reduction of viable cells [4] | secreted pyoverdine relative to untreated control, fluorescence at 460 nm normalized to CFU/mL (P. aeruginosa PAO1) | viability at 50 µM (P. aeruginosa PAO1) | iron in BfrB relative to cells in untreated pellicles (Ferene S band peak area) [5] | cells in the pellicle killed (COMSTAT) [6] |
| --- | --- | --- | --- | --- | --- | --- | --- | --- | --- | --- | --- | --- | --- | --- | --- | --- | --- | --- | --- | --- |
| O=C1NC(=O)c2c(NCCCc3cc(O)cc(Cl)c3)cccc21 [KM-5-66, 4-((3-(3-Chloro-5-hydroxyphenyl)propyl)amino)isoindoline-1,3-dione] | approximately 57% | ~21% | ~15% | 37% and 37.2% | ~0.3% | approximately 1.7 log | ~0.02% | ~1.9 log | 5% | approximately 1.5 log | 1% | ~2 log | ~80 µM (≈ 26.5 µg/mL) | ~2.5 fold | approximately 80% | approximately 80% | ~5 fold | ~35% | ~3 fold | ~85% |
| O=C1NC(=O)c2c(NCc3cc(Cl)ccc3O)cccc21 [KM-5-25, 4-((5-Chloro-2-hydroxybenzyl)amino)isoindoline-1,3-dione] |  | ~38% | ~25% | 42% and 42.5% | ~1% | ~1 log | ~0.5% | ~0.7 log | ~0.5% | approximately 2.5 log | ~0.003% | ~4.7 log | ~110 µM (≈ 33.3 µg/mL) | ~2.5 fold | approximately 80% | approximately 80% | ~5 fold | ~35% | ~3 fold | ~85% |
